In publication PMC12446476 (Nature Communications, 2025):
Converted amounts (≈) assume the structure as drawn. Like-named read-outs stand apart in the source and are kept apart here.

Tested on: N. gonorrhoeae
Experiment: MIC determination, Etest
Format: cell-based, Neisseria gonorrhoeae
Details: for MIC: Neisseria gonorrhoeae, comparator antibiotics, read-out: Minimum inhibitory concentration
From the text: The 2024 WHO N. gonorrhoeae reference strains were used for quality control. Only whole MIC doubling dilutions are reported. Clinical breakpoints or the epidemiological cutoff (ECOFF, to indicate azithromycin resistance) from EUCAST (v14.0, https://www.eucast.org/clinical_breakpoints) were used to classify isolates as antimicrobial susceptible or resistant. […] Two times the standard inoculum defined by CLSI was used to establish consistent growth in untreated control samples for some strains. In vitro time-kill assays were performed according to CLSI guidelines[65] using Columbia Broth (BD Difco) supplemented with 1% IsoVitaleX Enrichment (BD). Viable bacterial counts were generated by plating 10-fold serially diluted samples on GC agar plates containing 1% IsoVitaleX Enrichment (BD).

- MIC (clinical N. gonorrhoeae isolate 50, Sweden 2023): 16 µg/mL (≈ 48.1 µM)
- MIC (clinical N. gonorrhoeae isolate 51, Sweden 2023): 8 µg/mL (≈ 24.1 µM)
- MIC (clinical N. gonorrhoeae isolate 52, Sweden 2023): 16 µg/mL (≈ 48.1 µM)
- MIC (clinical N. gonorrhoeae isolate 53, Sweden 2023): 8 µg/mL (≈ 24.1 µM)
- MIC (clinical N. gonorrhoeae isolate 54, Sweden 2023): 16 µg/mL (≈ 48.1 µM)
- MIC (clinical N. gonorrhoeae isolate 55, Sweden 2023): 16 µg/mL (≈ 48.1 µM)
- MIC (clinical N. gonorrhoeae isolate 56, Sweden 2023): 8 µg/mL (≈ 24.1 µM)
- MIC (clinical N. gonorrhoeae isolate 57, Sweden 2023): 8 µg/mL (≈ 24.1 µM)
- MIC (clinical N. gonorrhoeae isolate 58, Sweden 2023): 8 µg/mL (≈ 24.1 µM)
- MIC (clinical N. gonorrhoeae isolate 59, Sweden 2023): 8 µg/mL (≈ 24.1 µM)
- MIC (clinical N. gonorrhoeae isolate 60, Sweden 2023): 16 µg/mL (≈ 48.1 µM)
- MIC (clinical N. gonorrhoeae isolate 61, Sweden 2023): 8 µg/mL (≈ 24.1 µM)
- MIC (clinical N. gonorrhoeae isolate 62, Sweden 2023): 8 µg/mL (≈ 24.1 µM)
- MIC (clinical N. gonorrhoeae isolate 63, Sweden 2023): 16 µg/mL (≈ 48.1 µM)
- MIC (clinical N. gonorrhoeae isolate 64, Sweden 2023): 16 µg/mL (≈ 48.1 µM)
- MIC (clinical N. gonorrhoeae isolate 65, Sweden 2023): 16 µg/mL (≈ 48.1 µM)
- MIC (clinical N. gonorrhoeae isolate 66, Sweden 2023): 16 µg/mL (≈ 48.1 µM)
- MIC (clinical N. gonorrhoeae isolate 67, Sweden 2023): 16 µg/mL (≈ 48.1 µM)
- MIC (clinical N. gonorrhoeae isolate 68, Sweden 2023): 16 µg/mL (≈ 48.1 µM)
- MIC (clinical N. gonorrhoeae isolate 69, Sweden 2023): 16 µg/mL (≈ 48.1 µM)
- MIC (clinical N. gonorrhoeae isolate 70, Sweden 2023): 8 µg/mL (≈ 24.1 µM)
- MIC (clinical N. gonorrhoeae isolate 71, Sweden 2023): 16 µg/mL (≈ 48.1 µM)
- MIC (clinical N. gonorrhoeae isolate 72, Sweden 2023): 8 µg/mL (≈ 24.1 µM)
- MIC (clinical N. gonorrhoeae isolate 73, Sweden 2023): 16 µg/mL (≈ 48.1 µM)
- MIC (clinical N. gonorrhoeae isolate 74, Sweden 2023): 16 µg/mL (≈ 48.1 µM)
- MIC (clinical N. gonorrhoeae isolate 75, Sweden 2023): 8 µg/mL (≈ 24.1 µM)
- MIC (clinical N. gonorrhoeae isolate 76, Sweden 2023): 8 µg/mL (≈ 24.1 µM)
- MIC (clinical N. gonorrhoeae isolate 77, Sweden 2023): 16 µg/mL (≈ 48.1 µM)
- MIC (clinical N. gonorrhoeae isolate 78, Sweden 2023): 16 µg/mL (≈ 48.1 µM)
- MIC (clinical N. gonorrhoeae isolate 79, Sweden 2023): 8 µg/mL (≈ 24.1 µM)
- MIC (clinical N. gonorrhoeae isolate 80, Sweden 2023): 16 µg/mL (≈ 48.1 µM)
- MIC (clinical N. gonorrhoeae isolate 81, Sweden 2023): 16 µg/mL (≈ 48.1 µM)
- MIC (clinical N. gonorrhoeae isolate 82, Sweden 2023): 16 µg/mL (≈ 48.1 µM)
- MIC (clinical N. gonorrhoeae isolate 83, Sweden 2023): 8 µg/mL (≈ 24.1 µM)
- MIC (clinical N. gonorrhoeae isolate 84, Sweden 2023): 16 µg/mL (≈ 48.1 µM)
- MIC (clinical N. gonorrhoeae isolate 85, Sweden 2023): 8 µg/mL (≈ 24.1 µM)
- MIC (clinical N. gonorrhoeae isolate 86, Sweden 2023): 8 µg/mL (≈ 24.1 µM)
- MIC (clinical N. gonorrhoeae isolate 87, Sweden 2023): 8 µg/mL (≈ 24.1 µM)
- MIC (clinical N. gonorrhoeae isolate 88, Sweden 2023): 16 µg/mL (≈ 48.1 µM)
- MIC (clinical N. gonorrhoeae isolate 89, Sweden 2023): 16 µg/mL (≈ 48.1 µM)
- MIC (clinical N. gonorrhoeae isolate 90, Sweden 2023): 16 µg/mL (≈ 48.1 µM)
- MIC (clinical N. gonorrhoeae isolate 91, Sweden 2023): 4 µg/mL (≈ 12 µM)
- MIC (clinical N. gonorrhoeae isolate 92, Sweden 2023): 8 µg/mL (≈ 24.1 µM)
- MIC (clinical N. gonorrhoeae isolate 93, Sweden 2023): 16 µg/mL (≈ 48.1 µM)
- MIC (clinical N. gonorrhoeae isolate 94, Sweden 2023): 8 µg/mL (≈ 24.1 µM)
- MIC (clinical N. gonorrhoeae isolate 95, Sweden 2023): 16 µg/mL (≈ 48.1 µM)
- MIC (clinical N. gonorrhoeae isolate 96, Sweden 2023): 8 µg/mL (≈ 24.1 µM)
- MIC (clinical N. gonorrhoeae isolate 97, Sweden 2023): 16 µg/mL (≈ 48.1 µM)
- MIC (clinical N. gonorrhoeae isolate 98, Sweden 2023): 4 µg/mL (≈ 12 µM)
- MIC (clinical N. gonorrhoeae isolate 99, Sweden 2023): 4 µg/mL (≈ 12 µM)
- MIC (clinical N. gonorrhoeae isolate 100, Sweden 2023): 16 µg/mL (≈ 48.1 µM)
SMILES: CN[C@@H]1[C@H](O)[C@H](NC)[C@H]2O[C@@]3(O)C(=O)C[C@@H](C)O[C@H]3O[C@@H]2[C@H]1O [Spectinomycin]
- AMR phenotype (susceptibility category, EUCAST) (WHO F): S
- AMR phenotype (susceptibility category, EUCAST) (WHO H): S
- AMR phenotype (susceptibility category, EUCAST) (WHO K): S
- AMR phenotype (susceptibility category, EUCAST) (WHO L): S
- AMR phenotype (susceptibility category, EUCAST) (WHO M): S
- AMR phenotype (susceptibility category, EUCAST) (WHO O): R
- AMR phenotype (susceptibility category, EUCAST) (WHO P): S
- AMR phenotype (susceptibility category, EUCAST) (WHO Q): S
- AMR phenotype (susceptibility category, EUCAST) (WHO R): S
- AMR phenotype (susceptibility category, EUCAST) (WHO S2): S
- AMR phenotype (susceptibility category, EUCAST) (WHO U): S
- AMR phenotype (susceptibility category, EUCAST) (WHO V): S
- AMR phenotype (susceptibility category, EUCAST) (WHO X): S
- AMR phenotype (susceptibility category, EUCAST) (WHO Y): S
- AMR phenotype (susceptibility category, EUCAST) (WHO Z): S
